“Also recorded” adds a separate entry of the source. Like-named read-outs stand apart in the source and are kept apart here.
Legend:
human adipocytes [1] = assay: Western blotting of protein levels in treated human adipocytes; format: cell-based
Procedure: Referring to FIG. 2, human adipocyte cultures were treated with naringenin for 0, 3 or 7d. Total protein was isolated and analyzed by Western Blotting. […] TGX SDS-PAGE gels (7.5%TM, BioRad) were used to separate 50 μg of solubilized protein per sample. Following transfer, nitrocellulose membranes were probed overnight at 4° C. with primary monoclonal antibodies against adiponectin, NAMPT, and PPARγ (Santa Cruz), PGC-1α monoclonal (4C1.3, EMDmillipore) and β-Actin (A5316, Sigma). HRP-linked anti-rabbit (12-348, Sigma) and anti-mouse (A[…], Sigma) were used to detect specific antibody-antigen complexes. Proteins were visualized by chemiluminescence (Western Lightning Plus-ECL, PerkinElmer, Waltham, Mass.). Bands were quantified using ImageJ software and values shown are normalized to β-actin.

human adipocytes [2] = assay: Oxygen consumption rate in human adipocytes, Seahorse XF24; format: cell-based; conditions: treated for 7d
Procedure: Referring to FIG. 3, oxygen consumption rate in human adipocytes after Naringenin treatment. Cells were treated for 7d and OCR was measured using a Seahorse XF24. Rosiglitizone and GW7647 (activators of PPARγ and PPARα) were included as positive controls.

human adipocytes [3] = assay: qRT-PCR in human adipocytes (hADSC) treated two days with naringenin and inhibitors; format: cell-based; conditions: for CPT1β mRNA expression compared to control / UCP1 mRNA expression compared to control: naringenin 30 μM (whole orange extract), two days
Procedure: Human white adipocytes were treated for 2d with naringenin in the presence of inhibitors of metabolic pathways to determine the mechanism of action for stimulating fat oxidation and thermogenic energy expenditure.
Naringenin increased UCP1 and CPT1β mRNA induction compared to control (p<0.001). PPARα and PPARγ inhibition reduced UCP1 and CPT1β mRNA expression (p<0.001). Each experiment was conducted with three biological replicates and four technical replicates.
The whole orange extract was dissolved in DMSO at 15 mM (based on 28% naringenin content) and added to cells at a dilution of 1:500 to achieve a final concentration of 30 μM. The inhibitors added to the naringenin-treated cells included: peroxisome proliferator-activated receptor alpha (PPARα) antagonist GW6471 and peroxisome proliferator-activated receptor gamma (PPARγ) antagonist GW9662 (Cayman Chemical, Ann Arbor, Mich.) at 10 μM concentration, protein kinase A (PKA) inhibitor H89 (Millipore Sigma, Burlington, Mass.) at 20 μM concentration, and protein kinase G (PKG) inhibitor […] (Biolog Life Science Institute, AXXORA, LLC, Farmingdale, N.Y.) at 50 μM concentration. GW6471 and GW9662 were dissolved in DMSO at 1000×, H89 was dissolved in PBS at 500×, and Rp-8-pCPT-cGMPS was dissolved in PBS at 100× prior to dilution in cell culture medium. Following a two-day treatment, the cells were harvested with Trizol reagent. RNeasy Mini Kit (Qiagen, Germantown, Md.) was used to isolate total RNA following manufacturer's protocol. The expression of UCP1, CPT1β, and GLUT4 was quantified with one-step reverse transcriptase PCR using the reverse PCR primer to prime cDNA synthesis as previously described.^6

[4] = Eight-week case study of naringenin 150 mg three times daily in a subject with diabetes; format: in vivo, human
Procedure: A subject was recruited. […] The subject met the inclusion criteria of fasting blood glucose between 126 and 200 mg/dL. They had been prescribed metformin but had discontinued the medication due to gastrointestinal intolerance. Exclusion criteria consisted of known allergy to citrus fruit. The study was approved by the Pennington Biomedical Research Center (PBRC) Institutional Review Board. The participant provided written informed consent. Procedures were in accordance with PBRC's ethical standards. We conducted an eight-week case study. The subject completed three visits to the clinic. Visits were performed in the morning after an overnight fast for at least eight hours where only water was permitted. At the baseline visit, upon arrival, weight and vital signs (blood pressure and heart rate) were measured. […] Blood was collected for a chemistry panel (glucose, insulin, creatinine, potassium, uric acid, albumin, calcium, magnesium, creatine phosphokinase, alanine aminotransferase, alkaline phosphatase, iron, total cholesterol high density lipoprotein cholesterol [HDL-C], low density lipoprotein cholesterol [LDL-C], and triglycerides) and a complete blood count (CBC). Resting metabolic rate (RMR) was measured over five hours at baseline and at the end of eight weeks using the ventilated hood to collect expirated gases. The test required the subject to lie quietly in bed after ingesting a capsule containing 150 mg naringenin. To evaluate the subject's metabolic rate, oxygen consumed and the carbon dioxide given off were measured during the last thirty minutes of each hour. Following the baseline testing, the subject was given 100 capsules each containing 150 mg naringenin with instructions to take one orally three times daily. At weeks two and six, the subject received a phone call from the study coordinator and was asked about their progress and compliance. Changes in medications and adverse events were also evaluated. They were encouraged to comply with the study protocol. At week four, the subject returned to the clinic and their weight, blood pressure, and heart rate were measured. Any remaining capsules were collected and compliance was assessed. Naringenin (100 capsules) for the next four weeks was dispensed. Week eight marked the subject's last visit and involved repeating the baseline testing. At this visit, the subject returned any remaining capsules, and compliance was assessed. Whole sweet oranges (Citrus Sinensis) were subjected to an aqueous and ethanolic extraction process, dried, milled, and provided in a powder form by Green Chem/Gencor Lifestage Solutions (Irvine, Calif.). The quantification of naringenin in the extract, and the safety and pharmacokinetics of the extract in humans are previously described.^15 The extract contained 28% naringenin. Therefore each capsule prepared by the PBRC pharmacist contained 536 mg of the extract.

[5] = 150 mg three times a day for eight weeks (Murugesan et al., 2020); cited from earlier work
[6] = cited from earlier work
[7] = cell culture and animal studies; cited from earlier work

SMILES: O=C1C[C@@H](c2ccc(O)cc2)Oc2cc(O)cc(O)c21 [naringenin]
- protein levels of UCP1, GLUT4, and ChREBP (human adipocytes [1]; 10 μM naringenin for 7 days): Corresponding increases
- AMPK activation (phospho-AMPK) (human adipocytes [1]; naringenin 0, 3 or 7d): activates AMPK
- oxygen consumption rate: basal and maximal energy expenditure (human adipocytes [2]): significantly increases basal and maximal energy expenditure
- oxygen consumption rate: basal and maximal energy expenditure (human adipocytes [2]; listed as Naringenin): increase in oxygen consumption
- CPT1β mRNA expression compared to control (human adipocytes [3]): more than three-fold
- UCP1 mRNA expression compared to control (human adipocytes [3]): more than three-fold
- CPT1β mRNA expression compared to control (human adipocytes [3]; listed as Naringenin): increased
- UCP1 mRNA expression compared to control (human adipocytes [3]; listed as Naringenin): increased
- GLUT4 mRNA expression (human adipocytes [3]; naringenin, two-day period): no increase
- loss of body weight ([4]; 150 mg three times a day, in 8 weeks): 2.3%
- reduction in HOMA-IR ([4]; absolute, eight weeks vs baseline): 0.6
- maximal respiratory quotient increase above baseline ([4]; at one hour): 1.2%
- RMR peak above baseline ([4]; at one hour, after eight weeks): 3.5%
- triglycerides after eight weeks ([4]; baseline 53 mg/dL): 70 mg/day
- HOMA-IR at the end of the study ([4]; baseline 3.4): 2.8
- Low density lipoprotein cholesterol decrease ([4]; calculated with the Friedewald equation): 10.3 mg/dL
- adverse events ([4]; eight weeks): No adverse events were reported
- blood safety markers ([4]; eight weeks): within their reference ranges; also recorded: no clinically significant changes
- change in respiratory quotient ([4]; eight weeks): no change; also recorded: did not change
- HOMA-IR reduction ([4]; eight weeks vs baseline): 17.6%
- change in glucose ([4]; eight weeks vs baseline): not clinically significant
- triglycerides increase ([4]; eight weeks vs baseline 53 mg/dL): 32%
- loss of body weight at the 6 month plateau ([4]; extrapolated from 8 weeks): 4.6%
- Body weight decrease ([4]; over eight weeks, vs baseline): 2.3 kg
- body weight reduction [5]: 2.5%
- serum concentrations of naringenin ([6]; after orange juice and fruit): < 1 μm
- presence in serum ([6]; lowest dose of 150 mg): present in serum at concentrations sufficient to elicit a physiologic response
- physiologically attainable concentration ([6]; pharmacokinetic studies in humans): 10 μM
- adverse events ([6]; single ascending dose trial of whole orange extract): no adverse events were observed at any dose
- concentration needed to elicit a physiologic response [7]: 1-200 μm
